Tests used:
[1] = oral, alcoholic liver cirrhosis, compared with placebo treated group; cited from earlier work
[2] = patients with Alzheimer's disease, preliminary study; cited from earlier work
[3] = oral administration, patients with and without liver disease; cited from earlier work
[4] = in vivo; cited from earlier work
[5] = oral administration, intrahepatic cholestasis; cited from earlier work
[6] = oral administration, short term trial; cited from earlier work
[7] = 10 ng/ml injected; sample left at room temperature in the light for 12 months, no special protection

C[S+](CC[C@H](N)C(=O)[O-])C[C@H]1O[C@@H](n2cnc3c(N)ncnc32)[C@H](O)[C@@H]1O (some centres unmarked) [SAM-e, S-adenosyl-1-methionine]
overall mortality and/or progression to liver transplant [1]: 12% | cognitive effect [2]: cognitive improvement | liver glutathione levels [3]: increases in liver glutathione levels | toxicity in clinical use [4]: absence of toxicity | pruritus and biochemical markers of cholestasis [5]: improvements in both the pruritus as well as the biochemical markers of cholestasis | clinical effect in primary fibromyalgia [6]: significant improvement | Area of HPLC peak [7]: 189251 | conc. [7]: 10 ng/mL

Source: patent publication US7387796B2, “Stable compositions of S-adenosyl-l-methionine with dextran” (priority 2002, dated 2008)
